Measurements reported in patent EP0848706B1, “SUBSTITUTED BENZENE-FUSED HETEROCYCLICS AS NEUROKININ ANTAGONISTS” (SCHERING CORPORATION, priority 1995, dated 1996).
Like-named read-outs stand apart in the source and are kept apart here.

How the values were obtained:
human NK-1 receptor = target: T1, human NK-1 receptor (Homo sapiens, UniProt P25103); assay: Neurokinin receptor binding assay, NK-1 ([3H]-Substance P, CHO cell membranes); settings: for Ki: Ki according to Cheng and Prusoff from competition binding curves, read-out: Ki(NK1); for inhibition at 1 µM: read-out: % Inhibition NK1 (1µM dose)
T1 construct: expressed in transfected cells; host or cells: Chinese Hamster ovary (CHO) cells
T1 sequence (P25103 whole entry): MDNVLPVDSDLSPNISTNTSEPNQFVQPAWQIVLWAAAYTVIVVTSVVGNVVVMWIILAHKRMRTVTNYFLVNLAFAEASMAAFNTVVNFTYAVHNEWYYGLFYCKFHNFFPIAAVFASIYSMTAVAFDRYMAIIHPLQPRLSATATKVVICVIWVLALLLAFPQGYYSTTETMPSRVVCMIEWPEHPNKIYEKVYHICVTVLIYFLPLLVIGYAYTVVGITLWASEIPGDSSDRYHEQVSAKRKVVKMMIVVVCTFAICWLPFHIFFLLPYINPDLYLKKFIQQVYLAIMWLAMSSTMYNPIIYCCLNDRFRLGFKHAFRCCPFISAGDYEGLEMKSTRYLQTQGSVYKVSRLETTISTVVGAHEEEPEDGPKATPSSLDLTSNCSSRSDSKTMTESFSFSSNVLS
Procedure: (§1) Chinese Hamster ovary (CHO) cells transfected with the coding regions for the human neurokinin 1 (NK1) of the human neurokinin 2 (NK2) receptors are grown in Dulbecco's minimal essential medium supplemented with 10% fetal calf serum, 0.1 mM non-essential amino acids, 2 mM glutamine, 100units/ml of penicillin and streptomycin, and 0.8 mg of G418/ml at 37°C in a humidified atmosphere containing 5% CO2.
(§2) Cells are detached from T-175 flasks with a sterile solution containing 5mM EDTA in phosphate buffered saline. Cells are harvested by centrifugation and washed in RPMI media at […] for 5 minutes. The pellet is resuspended inTris-HCl (pH7.4) containing 1 uM phsphoramidon and 4 ug/ml of chymostatin at a cell density of 30 x 10^6 cells/ml. The suspension is then homogenized in a Brinkman Polytron (setting 5) for 30-45 seconds. The homogenate is centrifuged at 800 x g for 5 min at 4°C to collect unbroken cells and nuclei. The supernatant is centrifuged in a Sorvall RC5C at 19,000 rpm ([…]) for 30 min at 4°C. The pellet is resuspended, an aliquot is removed for a protein determination (BCA) and washed again. The resulting pellet is stored at -80°C.
(§3) To assay receptor binding, 50 µl of [^3H]-Substance P (9-Sar, 11-Met) (specific activity 41 Ci/mmol) (Dupont-NEN) (0.8 nM for the NK-1 assay) or [^3H]-Neurokinin A (specific activity 114 Ci/ mmole) (Zenca) (1.0 nM for the NK-2 assay) is added to tubes containing buffer (50 mM Tris-HCl (pH 7.4) with 1 mM MnCl2 and 0.2% Bovine Serum Albumin) and either DMSO or test compound. Binding is initiated by the addition of 100µl of membrane (10-20 µg) containing the human NK-1 or NK-2 receptor in a final volume of 200 µl. After 40 minutes at room temperature, the reaction is stopped by rapid filtration onto Whatman GF/C filters which have been presoaked in 0.3% polyethylenimine. Filters are washed 2 times with 3 ml of 50 mM Tris-HCl (pH7.4). Filters are added to 6 mls of Ready-Safe liquid scintillation cocktail and quantified by liquid scintillation spectrometry in a LKB 1219 RackBeta counter. Non-specific binding is determined by the addition of either 1 µM of CP-99994 (NK-1) or 1µM SR-48968 (NK-2) (both synthesized by the chemistry department of Schering-Plough Research Institute). IC50 values are determined from competition binding curves and Ki values are determined according to Cheng and Prusoff using the experimentally determined value of 0.8 nM for the NK-1 receptor and 2.4 nM for the NK-2 receptor.
(§4) % Inhibition is the difference between the percent of maximum specific binding (MSB) and 100%. The percent of MSB is defined by the following equation, wherein "dpm" is disintegrations per minute: % MSB =((dpm of unknown) - (dpm of nonspecific binding))/((dpm of total binding) - (dpm of nonspecific binding))X 100 [formula]

human NK-2 receptor = target: T2, human NK-2 receptor (Homo sapiens, UniProt P21452); assay: Neurokinin receptor binding assay, NK-2 ([3H]-Neurokinin A, CHO cell membranes); settings: for Ki: Ki according to Cheng and Prusoff from competition binding curves, read-out: Ki (NK2); for inhibition at 1 µM: read-out: % Inhibition NK2 (1µM dose)
T2 construct: expressed in transfected cells; host or cells: Chinese Hamster ovary (CHO) cells
T2 sequence (P21452 1-398): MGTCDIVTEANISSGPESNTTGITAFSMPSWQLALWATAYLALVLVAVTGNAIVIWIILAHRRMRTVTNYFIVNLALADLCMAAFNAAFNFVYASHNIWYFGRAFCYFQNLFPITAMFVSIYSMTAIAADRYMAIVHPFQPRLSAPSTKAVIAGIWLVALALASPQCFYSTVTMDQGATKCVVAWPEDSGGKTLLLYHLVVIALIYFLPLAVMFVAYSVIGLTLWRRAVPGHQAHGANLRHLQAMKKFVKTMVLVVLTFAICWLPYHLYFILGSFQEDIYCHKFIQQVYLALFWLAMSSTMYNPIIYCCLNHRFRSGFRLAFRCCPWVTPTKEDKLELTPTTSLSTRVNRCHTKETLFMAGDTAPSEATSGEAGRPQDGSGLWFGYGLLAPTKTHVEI
Procedure: as §1, §2, §3, §4

NK3 = target: T3, NK3 (Homo sapiens, UniProt P29371); assay: NK3 activity, procedure similar to the literature (Molecular Pharmacol., 48 (1995), p. 711-716); format: binding
T3 sequence (P29371 1-465): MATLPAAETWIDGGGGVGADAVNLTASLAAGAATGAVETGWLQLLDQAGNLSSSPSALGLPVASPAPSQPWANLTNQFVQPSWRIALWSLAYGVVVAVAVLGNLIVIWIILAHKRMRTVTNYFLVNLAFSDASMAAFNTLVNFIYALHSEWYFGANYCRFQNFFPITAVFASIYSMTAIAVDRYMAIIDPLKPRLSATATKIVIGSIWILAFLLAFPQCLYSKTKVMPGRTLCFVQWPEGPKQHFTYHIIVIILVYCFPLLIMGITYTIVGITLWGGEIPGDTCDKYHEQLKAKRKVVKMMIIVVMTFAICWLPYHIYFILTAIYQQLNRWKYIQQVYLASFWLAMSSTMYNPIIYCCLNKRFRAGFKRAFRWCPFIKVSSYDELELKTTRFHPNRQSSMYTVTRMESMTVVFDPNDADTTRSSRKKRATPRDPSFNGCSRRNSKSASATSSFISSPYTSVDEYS
Procedure: NK3 activity is determined by following a procedure similar to that described in the literature, e.g., Molecular Pharmacol., 48 (1995), p. 711-716.

[1] = 1µM dose, % inhibition = 100% minus percent of maximum specific binding

| Ki (human NK-1 receptor) [nM] | Ki (human NK-2 receptor) [nM] | inhibition at 1 µM (human NK-1 receptor; [1]) [%] | inhibition at 1 µM (human NK-2 receptor; [1]) [%] | Compound | inhibition at 1 µM (human NK-2 receptor) [%] | inhibition at 1 µM (human NK-1 receptor) [%] | Ki (NK3) [nM] |
| --- | --- | --- | --- | --- | --- | --- | --- |
| 165 | 59 | 69 | 96 | CN(CCc1c[nH]c2ccccc12)CCC(CN(C)C(=O)c1ccc2c(c1)OCO2)c1ccc(Cl)c(Cl)c1 (stereo not shown) [Example 12a] |  |  |  |
| 233 | 30 |  |  | COc1cc(OC)cc(C(=O)N2CCC(CCN(C)CCc3c[nH]c4ccccc34)(c3ccc(Cl)c(Cl)c3)C2)c1 (stereo not shown) [Example 14a] |  |  |  |

Further lines, the compound ahead of its results:

| Compound | Ki (human NK-1 receptor) [nM] | Ki (human NK-2 receptor) [nM] | inhibition at 1 µM (human NK-1 receptor; [1]) [%] | inhibition at 1 µM (human NK-2 receptor; [1]) [%] | inhibition at 1 µM (human NK-2 receptor) [%] | inhibition at 1 µM (human NK-1 receptor) [%] | Ki (NK3) [nM] |
| --- | --- | --- | --- | --- | --- | --- | --- |
| COc1cc(C(=O)N(C)CC(CCN(C)CCc2c[nH]c3ccc(F)cc23)c2ccc(Cl)c(Cl)c2)cc(OC)c1OC (racemic) [Example 7c] | 12 | 10 |  |  | 100 |  |  |
| COc1cc(C(=O)N(C)CC(CCN(C)CCc2c[nH]c3ccccc23)c2ccc(Cl)c(Cl)c2)cc(OC)c1OC (stereo not shown) [Example 2] | 25 | 33 |  |  | 87 | 81 | 448 |
| C=CCN(CCc1c[nH]c2ccccc12)CCC(CN(C)C(=O)c1cc(OC)c(OC)c(OC)c1)c1ccc(Cl)c(Cl)c1 (stereo not shown) [Example 9b] | 23 | 250 |  |  |  |  |  |
